From patent publication US5227163A, “Lice-repellant compositions” (priority 1992, dated 1993)
Several values for one entry are separate records, joined by “and”; a condition that tells them apart may be missing. Equal entries are not always repeated.

How the values were obtained:
[1] = tested on: lice; test: Standard in vitro test on filter paper (petri-dish lice repellency); conditions: 10 min, 20±3° C.
Protocol: Screening tests were performed on many substances of the following groups: terpenes (hydrocarbons), terpenoid alcohols, terpenoid esters, terpenoid aldehydes and ketones, essential oils which contain terpenoids and perfumes which contain terpenoids, as well as various general insect repellents, for lice-repellency. Each experiment included exposure of the lice to different concentrations of the tested substance, and measuring the dose response of those materials.
A petri-dish method was used to examine the repellency of the solutions for lice. A filter paper (Whatman No. 4, 5.5 cm in diameter) was secured in a petri-dish. A 100 μl portion of the test solution was placed on a corduroy patch (1.5 cm^2). The material was allowed to dry for 30 min. at room temperature (20±3° C.) and the patch was placed at the periphery of the petri-dish. A patch treated with a control solution (96% Ethanol) was placed on the opposite side of the dish. Twenty female lice which had been fed 24 hours previously were placed in the middle of the dish. A box was placed over the dish and it was covered with a dark cloth in order to keep the test area in the dark. The experiment was carried out at room temperature (20°±3° C.) and lasted 10 min. The number of lice on the treated and controlled patches as well as on the area between the patches was recorded in a protocol. The experiment was repeated three times for each sample.
% repellency was calculated by the following formula:
where: T=number of lice on the treated patch
C=number of lice on the untreated patch
The following terms were recorded:
RC80 =Concentration giving 80% repellency.
RC50 =Concentration giving 50% repellency.
RD80 =mg/cm^2 giving 80% repellency.
RD50 =mg/cm^2 giving 50% repellency.

[2] = tested on: mosquito; conditions: Hwang et al. 1985; Ruledge 1988; cited from earlier work
[3] = tested on: human lice; test: In vivo lice repellency on rabbits of shampoo and conditioner; parameters: species or system human lice (on rabbits); conditions: for % Repellency (Mean Values): Table 5; for Number of Lice (Out of 40) Found in the Treated Area: three experiments, listed as D.M.P.
Protocol: (§1) Body lice were reared in the laboratory by feeding them every 48 hours on rabbits. Lice were placed on the shaved abdomen of a white rabbit and left until they fed to satiety. Outside the host the lice were maintained at a temperature of 30 ±1° C., and relative humidity of 70±10%.
The abdomen of a New Zealand white rabbit was shaved and 100 μl of the test substance was evenly distributed over an area 2.5×5 cm. A glass cylinder 5 cm high with an internal diameter of 3.5 cm was placed on the rabbit's abdomen so that one half of it was covering the treated area and the other half the adjacent untreated area. 40 human body lice (Pediculus humanus humanus) (20 adults and 20 nymphs) which had been fed 24 hours previously were placed in the middle of the cylinder between the treated and untreated area, and the cylinder was covered with a dark cloth in order to keep the test area in the dark. The lice remained on the body of the rabbit for 5 minutes during which time over 95% of them had started feeding. The number of lice found on the treated area was then recorded and the specimen was photographed. Room temperature during the test was 20±3° C. For comparison to the tested samples, two controls were also tested: 70% Ethanol (Frutarom, C. P.) and 33% Dimethyl Phthalate (in 70% Ethanol). […]
The efficacy of a shampoo and a hair-conditioner, aimed at repellency of human lice was examined in an in vivo procedure on rabbits. Each experiment included a terpenoid containing product and four controls: 70% Ethanol, Dimethyl phthalate, placebo shampoo and placebo conditioner. All experiments were repeated three times, and the results were consistent, as shown by Table 4.
(§2) % Repellency was calculated according to equation 1.
(§3) According to Equation 1, when lice are evenly distributed between the treated and untreated areas (n=1/2 A), % Repellency=0, and when no lice are left in the treated area (n=0), % Repellency=100.

[4] = tested on: human body lice; test: In vivo test of lice repellency on rabbits (spray, gel, de cologne); parameters: species or system Pediculus humanus humanus (on New Zealand white rabbits); conditions: for % Repellency (Mean Values): Table 3; for Number of Lice (Out of 40) Found in the Treated Area: single experiments (a), (b), (c), listed as D.M.P.
Protocol: as §1
The abdomen of a New Zealand white rabbit was shaved and 100 μl of the test substance was evenly distributed over an area 2.5×5 cm. A glass cylinder 5 cm high with an internal diameter of 3.5 cm was placed on the rabbit's abdomen so that one half of it was covering the treated area and the other half the adjacent untreated area. 40 human body lice (Pediculus humanus humanus) (20 adults and 20 nymphs) which had been fed 24 hours previously were placed in the middle of the cylinder between the treated and untreated area, and the cylinder was covered with a dark cloth in order to keep the test area in the dark. The lice remained on the body of the rabbit for 5 minutes during which time over 95% of them had started feeding. The number of lice found on the treated area was then recorded and the specimen was photographed. Room temperature during the test was 20±3° C. For comparison to the tested samples, two controls were also tested: 70% Ethanol (Frutarom, C. P.) and 33% Dimethyl Phthalate (in 70% Ethanol).
The products were topically applied as a spray, lotion or gel on human hair and skin, to repel lice. The above procedure was carried out 1, 3, 5, and 24 hours after application of a test substance. Each substance was tested three times on three different rabbits on three different occasions.
as §2
Where: A = Total Number of lice
n = Mean number of lice found in the treated area
as §3

[5] = tested on: human body lice; test: as above; parameters: species or system Pediculus humanus humanus (on New Zealand white rabbits); conditions: 7 hours

Compound: CC1=CCC(C(C)(C)O)CC1 (stereo not drawn) [α-TERPINEOL, α-terpineol]
- RC50 (Concentration giving 50% repellency) [1]: 0.040%
- RC80 (Concentration giving 80% repellency) [1]: 0.080%
- RD80 (mg/cm^2 giving 80% repellency) [1]: 0.056 mg/cm^2
- mosquito repellency, in words [2]: useful in mosquito repellent

Compound: COC(=O)c1ccccc1C(=O)OC [Dimethyl Phthalate]
- % Repellency (Mean Values) ([3]; 1 hour): 20%
- Number of Lice (Out of 40) Found in the Treated Area ([3]; 1 hour): 21 and 12 and 15
- % Repellency (Mean Values) ([3]; 3 hours): 10%
- Number of Lice (Out of 40) Found in the Treated Area ([3]; 3 hours): 16 and 18 and 20
- Number of Lice (Out of 40) Found in the Treated Area ([3]; 4 hours): 16 and 14 and 18
- % Repellency (Mean Values) ([3]; 5 hours): 20%
- % Repellency (Mean Values) ([3]; 7 hours): 26%
- Number of Lice (Out of 40) Found in the Treated Area ([3]; 7 hours): 18 and 14 and 12
- % Repellency (Mean Values) ([4]; 1 hour): 20%
- Number of Lice (Out of 40) Found in the Treated Area ([4]; 1 hour): 21 and 12 and 15
- % Repellency (Mean Values) ([4]; 3 hours): 10%
- Number of Lice (Out of 40) Found in the Treated Area ([4]; 3 hours): 16 and 18 and 20
- % Repellency (Mean Values) ([4]; 5 hours): 20%
- Number of Lice (Out of 40) Found in the Treated Area ([4]; 5 hours): 16 and 14 and 18
- lice repellency in vivo, in words ([4]; rabbit, in vivo): poor results
- repellency against lice over the duration stated ([4]; range over at least 5 or 7 hours): 10-25%
- % Repellency (Mean Values) ([5]; Table 3): 26%
- Number of Lice (Out of 40) Found in the Treated Area ([5]; single experiments (a), (b), (c), listed as D.M.P.): 18 and 14 and 12
